These results are taken from patent publication EP0547708A1, “Saccharin derivative proteolytic enzyme inhibitors” (STERLING WINTHROP INC., priority 1991, dated 1993).

In the experiment the target is T1, human leukocyte elastase (Homo sapiens, UniProt P08246).
T1 sequence (P08246 30-267): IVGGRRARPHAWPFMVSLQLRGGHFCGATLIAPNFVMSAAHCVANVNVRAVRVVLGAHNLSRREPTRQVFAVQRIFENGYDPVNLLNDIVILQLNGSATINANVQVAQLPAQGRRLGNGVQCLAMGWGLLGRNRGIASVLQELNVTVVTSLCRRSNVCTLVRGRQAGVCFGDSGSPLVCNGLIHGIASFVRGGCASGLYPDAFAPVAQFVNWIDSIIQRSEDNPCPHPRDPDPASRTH
Nature of the experiment: Inhibition of human leukocyte elastase in vitro (Ki* = koff/kon). Format: biochemical. The settings on record: Ki* = koff/kon (rate of reactivation of the enzyme divided by rate of inactivation); koff and kon measured, Ki* then calculated.

Method: Ki*, which is defined as the rate of reactivation of the enzyme divided by the rate of inactivation of the enzyme (koff/kon), was therefore determined instead. The values of koff and kon were measured and Ki* was then calculated.
The value of kon was determined by measuring the enzyme activity of an aliquot of the enzyme as a function of the time after addition of the test compound (inhibitor). […] The value of kon was then obtained by the equation kon = kobs /[I] [formula] wherein [I] is the concentration of the inhibitor. The value of koff was similarly determined, and Ki* was then obtained by the equation Ki * = koff /kon [formula] .

On to `CC(C)c1cccc2c1C(=O)N(COC1=CC(=O)OC1)S2(=O)=O` [Example 1A, 2-[(2,5-dihydro-5-oxo-3-furanyl)oxymethyl]-4-isopropylsaccharin], for which the Ki was 0.4 nM.

Take `CC(C)c1cccc2c1C(=O)N(COc1cc(=O)oc3ccccc13)S2(=O)=O` [Example 1B]: the Ki was 0.22 nM.

As for `CC(C)c1cccc2c1C(=O)N(COc1cc(=O)n(C)c3ccccc13)S2(=O)=O` [Example 1C], the Ki was 0.7 nM.

Take `Cc1cc(OCN2C(=O)c3c(C(C)C)cccc3S2(=O)=O)cc(=O)o1` [Example 1D]: the Ki is 0.25 nM.

As to `Cc1cc(OCN2C(=O)c3c(C(C)C)cccc3S2(=O)=O)c(C(=O)c2ccccc2)c(=O)o1` [Example 1E], the Ki was 0.035 nM.

As to `CC(C)c1cccc2c1C(=O)N(COc1cc(-c3ccccc3)oc(=O)c1)S2(=O)=O` [Example 1F], the Ki was 0.22 nM.

Take `COc1cc(C(C)C)c2c(c1)S(=O)(=O)N(COC1=C(Cc3ccccc3)C(=O)OC1(C)C)C2=O` [Example 1O]: the Ki is 0.016 nM.

Turning to `COc1cc(C(C)C)c2c(c1)S(=O)(=O)N(COC1=C(CN3CCOCC3)C(=O)OC1)C2=O` [Example 1P], the Ki was 0.041 nM.

`COc1cc(C(C)C)c2c(c1)S(=O)(=O)N(COc1c(C(C)=O)c(=O)n(-c3ccccc3)c3ccccc13)C2=O` [Example 3A, 2-(1-phenyl-3-acetylcarbostyryl-4-yl)oxymethyl-4-isopropyl-6-methoxysaccharin]: the Ki was 0.43 nM.

In the case of `COc1cc(C(C)C)c2c(c1)S(=O)(=O)N(COc1c(C(C)=O)c(=O)n(C)c3ccccc13)C2=O` [Example 3B, 2-(1-methyl-3-acetylcarbostyryl-4-yl)oxymethyl-4-isopropyl-6-methoxysaccharin], the Ki is 0.27 nM.

With `COc1cc(C(C)C)c2c(c1)S(=O)(=O)N(COC1=CC(=O)OC1(C)C)C2=O` [Example 4E], the Ki is 0.093 nM.

As for `COc1cc(C(C)C)c2c(c1)S(=O)(=O)N(COC1=C(Oc3ccccc3)C(=O)N(c3ccccc3)C1)C2=O` [Example 4F], the Ki was 0.06 nM.

Regarding `COc1cc(C(C)C)c2c(c1)S(=O)(=O)N(COC1=C(N3CCCCC3)C(=O)N(c3ccccc3)C1)C2=O` [Example 4G], the Ki is 0.2 nM.

`COc1cc(C(C)C)c2c(c1)S(=O)(=O)N(COc1nc3ccccn3c(=O)c1CN1CCOCC1)C2=O` [Example 5, 2-[3-(4-morpholinylmethyl)-4-oxo-4H-pyrido[1,2-a]pyrimidin-2-yl]oxymethyl-4-isopropyl-6-methoxysaccharin]: the Ki was 0.23 nM.

For `COc1cc(C(C)C)c2c(c1)S(=O)(=O)N(COC1=C(C)C(=O)C(C)=C(C)C1=O)C2=O` [Example 6, 2-(3,5,6-trimethyl-1,4-dioxo-2,5-cyclohexadien-2-yl)oxymethyl-4-isopropyl-6-methoxysaccharin], the Ki was 0.92 nM.

`COc1cc(C(C)C)c2c(c1)S(=O)(=O)N(COC1=C(C(C)=O)C(=O)c3ccoc3C1=O)C2=O` [Example 7, 2-(5-acctyl-4,7-dihydro-4,7-dioxobenzofuran-6-yl)oxymethyl-4-isopropyl-6-methoxysaccharin]: the Ki was 17 nM.
